The values below come from patent publication US9499492B2, “4-(ortho)-fluorophenyl-5-fluoropyrimidin-2-yl amines containing a sulfoximine group” (BAYER PHARMA AKTIENGESELLSCHAFT, priority 2012, dated 2016).

Structures can show the parent of a compound that is named as a salt. Where two headings read alike, the source gives them in different places.

Assay [1] concerns the target T1, CDK9/CycT1 (Homo sapiens (Human), UniProt P50750). Kind of assay: CDK9/CycT1 high ATP kinase assay (Method 1b). It counts as biochemical. The settings on record: 2 mM ATP. As for the experimental part: 1b. CDK9/CycT1 High ATP Kinase Assay
CDK9/CycT1-inhibitory activity of compounds of the present invention at a high ATP concentration after preincubation of enzyme and test compounds was quantified employing the CDK9/CycT1 TR-FRET assay as described in the following paragraphs.
Recombinant full-length His-tagged human CDK9 and CycT1, expressed in insect cells and purified by Ni-NTA affinity chromatography, were purchase from Invitrogen (Cat. No PV4131). As substrate for the kinase reaction biotinylated peptide biotin-Ttds-[…] (C-terminus in amid form) was used which can be purchased e.g. form the company JERINI peptide technologies (Berlin, Germany).
(§1) For the assay 50 nl of a 100 fold concentrated solution of the test compound in DMSO was pipetted into a black low volume 384 well microtiter plate (Greiner Bio-One, Frickenhausen, Germany), 2 μl of a solution of CDK9/CycT1 in aqueous assay buffer [50 mM Tris/HCl pH 8.0, 10 mM MgCl2, 1.0 mM dithiothreitol, 0.1 mM sodium ortho-vanadate, 0.01% (v/v) Nonidet-P40 (Sigma)] were added and the mixture was incubated for 15 min at 22° C. to allow pre-binding of the test compounds to the enzyme before the start of the kinase reaction. […] The concentration of CDK9/CycT1 was adjusted depending of the activity of the enzyme lot and was chosen appropriate to have the assay in the linear range, typical concentrations were in the range of 0.5 μg/ml.
(§2) The resulting mixture was incubated 1 h at 22° C. to allow the formation of complex between the phosphorylated biotinylated peptide and the detection reagents. Subsequently the amount of phosphorylated substrate was evaluated by measurement of the resonance energy transfer from the Eu-chelate to the streptavidine-XL. Therefore, the fluorescence emissions at 620 nm and 665 nm after excitation at 350 nm was measured in a HTRF reader, e.g. a Rubystar (BMG Labtechnologies, Offenburg, Germany) or a Viewlux (Perkin-Elmer). The ratio of the emissions at 665 nm and at 622 nm was taken as the measure for the amount of phosphorylated substrate.

The next assay addresses CDK2/CycE (Homo sapiens (Human), UniProt P24941). Kind of assay: CDK2/CycE kinase assay (Method 2). The settings on record: 10 μM ATP. It is filed as biochemical.
From the text: 2. CDK2/CycE Kinase Assay:
CDK2/CycE-inhibitory activity of compounds of the present invention was quantified employing the CDK2/CycE TR-FRET assay as described in the following paragraphs:
Recombinant fusion proteins of GST and human CDK2 and of GST and human CycE, expressed in insect cells (Sf9) and purified by Glutathion-Sepharose affinity chromatography, were purchased from ProQinase GmbH (Freiburg, Germany). As substrate for the kinase reaction biotinylated peptide biotin-Ttds-[…] (C-terminus in amid form) was used which can be purchased e.g. form the company JERINI Peptide Technologies (Berlin, Germany).
as §1, with “CDK2/CycE” for “CDK9/CycT1”, “130 ng/ml.” for “0.5 μg/ml.”
as §2, with “TR-FRET” for “HTRF”

In assay [2] the target is T1, CDK9/CycT1. Kind of assay: CDK9/CycT1 kinase assay (Method 1a). It counts as biochemical. To be noted: for IC50: 10 μM ATP; for Selectivity CDK9/CDK2: derived from Methods 1a. and 2.
From the text: 1a. CDK9/CycT1 Kinase Assay:
CDK9/CycT1-inhibitory activity of compounds of the present invention was quantified employing the CDK9/CycT1 TR-FRET assay as described in the following paragraphs:
Recombinant full-length His-tagged human CDK9 and CycT1, expressed in insect cells and purified by Ni-NTA affinity chromatography, were purchased from Invitrogen (Cat. No PV4131). As substrate for the kinase reaction biotinylated peptide biotin-Ttds-[…] (C-terminus in amid form) was used which can be purchased e.g. form the company JERINI Peptide Technologies (Berlin, Germany).
as §1, with “1” for “0.5”
as §2

The subject of assay [3] is HeLa, human cervical tumour cells. Kind of assay: Proliferation assay, HeLa (Method 3). It counts as cell-based. The settings on record: 4 days, crystal violet, read-out: Inhibition of HeLa cell proliferation IC50. The procedure: (§3) After 24 hours, the cells of one plate (zero-point plate) were stained with crystal violet (see below), while the medium of the other plates was replaced by fresh culture medium (200 μl), to which the test substances were added in various concentrations (0 μM, as well as in the range of 0.001-10 μM; the final concentration of the solvent dimethyl sulfoxide was 0.5%). The cells were incubated for 4 days in the presence of test substances. Cell proliferation was determined by staining the cells with crystal violet: the cells were fixed by adding 20 μl/measuring point of an 11% glutaric aldehyde solution for 15 minutes at room temperature. After three washing cycles of the fixed cells with water, the plates were dried at room temperature. The cells were stained by adding 100 μl/measuring point of a 0.1% crystal violet solution (pH 3.0). After three washing cycles of the stained cells with water, the plates were dried at room temperature. The dye was dissolved by adding 100 μl/measuring point of a 10% acetic acid solution. The extinction was determined by photometry at a wavelength of 595 nm. The change of cell number, in percent, was calculated by normalization of the measured values to the extinction values of the zero-point plate (=0%) and the extinction of the untreated (0 μm) cells (=100%).

For assay [4], the system named is A2780, human ovarian carcinoma cells. Kind of assay: Proliferation assay, A2780 (Method 3). It is filed as cell-based. The settings on record: Homo sapiens, A2780, 96 h, A2780, 4 days, crystal violet; read-out: Inhibition of A2780 cell proliferation IC50. The procedure:
as §3

T1 sequence (P50750 whole entry): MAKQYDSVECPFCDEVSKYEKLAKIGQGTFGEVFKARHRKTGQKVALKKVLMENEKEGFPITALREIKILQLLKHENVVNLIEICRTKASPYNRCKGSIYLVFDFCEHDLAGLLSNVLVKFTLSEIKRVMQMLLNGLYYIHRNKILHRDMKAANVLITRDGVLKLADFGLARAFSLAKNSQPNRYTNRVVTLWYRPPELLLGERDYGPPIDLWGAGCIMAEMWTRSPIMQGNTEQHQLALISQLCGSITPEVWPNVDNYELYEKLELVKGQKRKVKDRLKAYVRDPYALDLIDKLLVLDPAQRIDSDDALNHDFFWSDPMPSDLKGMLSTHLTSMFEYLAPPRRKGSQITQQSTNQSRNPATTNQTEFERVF
T1 sequence (O60563 whole entry partner): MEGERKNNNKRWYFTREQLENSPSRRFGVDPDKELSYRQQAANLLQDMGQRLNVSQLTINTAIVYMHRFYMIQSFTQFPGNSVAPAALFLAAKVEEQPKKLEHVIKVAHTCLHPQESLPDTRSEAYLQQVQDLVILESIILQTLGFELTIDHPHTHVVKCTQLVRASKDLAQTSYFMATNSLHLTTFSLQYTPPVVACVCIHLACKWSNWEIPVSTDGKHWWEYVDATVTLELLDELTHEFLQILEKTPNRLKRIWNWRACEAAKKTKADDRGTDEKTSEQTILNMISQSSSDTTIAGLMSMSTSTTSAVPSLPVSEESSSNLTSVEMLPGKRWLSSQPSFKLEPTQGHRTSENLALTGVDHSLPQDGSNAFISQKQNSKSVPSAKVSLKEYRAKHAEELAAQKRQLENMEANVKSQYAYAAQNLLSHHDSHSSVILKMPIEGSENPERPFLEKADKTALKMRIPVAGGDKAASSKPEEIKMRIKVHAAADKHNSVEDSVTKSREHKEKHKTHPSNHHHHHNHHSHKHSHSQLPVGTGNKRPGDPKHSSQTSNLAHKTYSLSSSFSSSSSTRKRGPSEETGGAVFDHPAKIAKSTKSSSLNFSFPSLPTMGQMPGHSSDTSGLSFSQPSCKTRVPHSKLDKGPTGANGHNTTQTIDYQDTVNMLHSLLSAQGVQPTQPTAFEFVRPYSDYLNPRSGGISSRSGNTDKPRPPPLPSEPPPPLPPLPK

Turning to `N=S(=O)(CCN)Cc1cc(Nc2ncc(F)c(-c3ccc(F)cc3F)n2)cc(C(F)(F)F)c1` (single isomer, unassigned) [Example 26, N-[3-{[S-(2-Aminoethyl)sulfonimidoyl]methyl}-5-(trifluoromethyl)phenyl]-4-(2,4-difluorophenyl)-5-fluoropyrimidin-2-amine], the results for the IC50 at CDK9/CycT1 [1] and against CDK2/CycE were 278 nM and 1300 nM, respectively.

As to `N=S(=O)(CCN)Cc1cc(Nc2ncc(F)c(-c3ccc(F)cc3F)n2)cc(C(F)(F)F)c1` (single isomer, unassigned) [Example 27, N-[3-{[S-(2-Aminoethyl)sulfonimidoyl]methyl}-5-(trifluoromethyl)phenyl]-4-(2,4-difluorophenyl)-5-fluoropyrimidin-2-amine], the IC50 at CDK9/CycT1 [1] was found to be 276 nM; against CDK2/CycE, 1100 nM.

With `COCCS(=O)(Cc1cc(Nc2ncc(F)c(-c3ccc(F)cc3F)n2)cc(C(F)(F)F)c1)=NC#N` (racemic) [Example 22, (rac)-{[3-{[4-(2,4-Difluorophenyl)-5-fluoropyrimidin-2-yl]amino}-5-(trifluoromethyl)benzyl](2-methoxyethyl)oxido-λ^6-sulfanylidene}cyanamide], the IC50 against CDK9/CycT1 [1] amounted to 19 nM; against CDK2/CycE, 1200 nM; against CDK9/CycT1 [2], 7 nM; in assay [3] (Homo sapiens, 96 h), 900 nM. For the same compound, the “Selectivity CDK9/CDK2” value on CDK9/CycT1 [2] is 183.

With `Cc1cc(CS(C)(=N)=O)cc(Nc2ncc(F)c(-c3ccc(F)cc3F)n2)c1` (racemic) [Example 17, (rac)-4-(2,4-Difluorophenyl)-5-fluoro-N-{3-methyl-5-[(S-methylsulfonimidoyl)methyl]phenyl}pyrimidin-2-amine], the IC50 against CDK9/CycT1 [1] is 470 nM; on CDK2/CycE, 480 nM; at CDK9/CycT1 [2] it was 26 nM; in assay [3] (Homo sapiens, 96 h) it was 1360 nM; in assay [4], 180 nM. Also, at CDK9/CycT1 [2], the “Selectivity CDK9/CDK2” value is given as 19.

In the case of `N=S(=O)(CCN)Cc1cc(Nc2ncc(F)c(-c3ccc(F)cc3F)n2)cc(C(F)(F)F)c1` (racemic) [Example 25, (rac)-N-[3-{[S-(2-Aminoethyl)sulfonimidoyl]methyl}-5-(trifluoromethyl)phenyl]-4-(2,4-difluorophenyl)-5-fluoropyrimidin-2-amine trifluoroacetate], the IC50 at CDK9/CycT1 [1] came to 417 nM; on CDK2/CycE it was 3200 nM; on CDK9/CycT1 [2], 85 nM; in assay [3] (Homo sapiens, 96 h) it was 2210 nM. Further, at CDK9/CycT1 [2], the “Selectivity CDK9/CDK2” value turned out to be 38.

For `Cc1cc(CS(C)(=N)=O)cc(Nc2ncc(F)c(-c3ccc(F)cc3F)n2)c1` (single isomer, unassigned) [Example 38, 4-(2,4-Difluorophenyl)-5-fluoro-N-{3-methyl-5-[(S-methylsulfonimidoyl)methyl]-phenyl}pyrimidin-2-amine], the IC50 was 6490 nM against CDK9/CycT1 [1], 720 nM against CDK2/CycE, 19 nM against CDK9/CycT1 [2] and 649 nM in assay [3]. Besides, on CDK9/CycT1 [2], the “Selectivity CDK9/CDK2” value came to 38.

Take `CS(=N)(=O)Cc1cccc(Nc2ncc(F)c(-c3ccc(F)cc3F)n2)c1` (racemic) [Example 9, (rac)-4-(2,4-Difluorophenyl)-5-fluoro-N-{3-[(S-methylsulfonimidoyl)methyl]phenyl}pyrimidin-2-amine]: the results for the IC50 at CDK9/CycT1 [1], against CDK2/CycE and against CDK9/CycT1 [2] were 2710 nM, 1100 nM and 42 nM, respectively. Further, the “Selectivity CDK9/CDK2” value on CDK9/CycT1 [2] is on record as 25.

For `Cc1cc(CS(C)(=N)=O)cc(Nc2ncc(F)c(-c3ccc(F)cc3F)n2)c1` (single isomer, unassigned) [Example 37, 4-(2,4-Difluorophenyl)-5-fluoro-N-{3-methyl-5-[(S-methylsulfonimidoyl)methyl]-phenyl}pyrimidin-2-amine], the IC50 worked out at 6310 nM against CDK9/CycT1 [1]; 830 nM against CDK2/CycE; 36 nM against CDK9/CycT1 [2]; 1080 nM in assay [3] (Homo sapiens, 96 h). For the same compound, at CDK9/CycT1 [2], the “Selectivity CDK9/CDK2” value is 23.
